From article PMC10709440, “High-throughput ligand profile characterization in novel cell lines expressing seven heterologous insect olfactory receptors for the detection of volatile plant biomarkers” (Scientific Reports, 2023)
Where two headings read alike, the source gives them in different places.

Columns and labels:
[1] = molecular target: T1, Drosophila OR13a (Drosophila melanogaster, UniProt Q9VXL0); assay: Calcium ion fluorescence (GCaMP6) assay, OR13a stable HEK293 cell line; type: cell-based
T1 construct: expressed in transfected cells
T1 sequence (Q9VXL0 1-418): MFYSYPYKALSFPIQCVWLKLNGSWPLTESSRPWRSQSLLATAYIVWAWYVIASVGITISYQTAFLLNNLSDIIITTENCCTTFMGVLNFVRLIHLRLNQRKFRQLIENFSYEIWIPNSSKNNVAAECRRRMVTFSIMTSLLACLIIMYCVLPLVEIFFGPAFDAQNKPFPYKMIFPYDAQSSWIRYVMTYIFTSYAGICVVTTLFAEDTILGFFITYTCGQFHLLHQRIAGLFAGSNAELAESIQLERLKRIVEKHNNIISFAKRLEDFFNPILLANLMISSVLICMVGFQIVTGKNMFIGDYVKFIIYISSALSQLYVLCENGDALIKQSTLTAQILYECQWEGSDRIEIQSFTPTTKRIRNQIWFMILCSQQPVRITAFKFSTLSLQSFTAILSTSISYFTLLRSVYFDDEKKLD
T1 sequence (Q9VNB5 1-486 partner): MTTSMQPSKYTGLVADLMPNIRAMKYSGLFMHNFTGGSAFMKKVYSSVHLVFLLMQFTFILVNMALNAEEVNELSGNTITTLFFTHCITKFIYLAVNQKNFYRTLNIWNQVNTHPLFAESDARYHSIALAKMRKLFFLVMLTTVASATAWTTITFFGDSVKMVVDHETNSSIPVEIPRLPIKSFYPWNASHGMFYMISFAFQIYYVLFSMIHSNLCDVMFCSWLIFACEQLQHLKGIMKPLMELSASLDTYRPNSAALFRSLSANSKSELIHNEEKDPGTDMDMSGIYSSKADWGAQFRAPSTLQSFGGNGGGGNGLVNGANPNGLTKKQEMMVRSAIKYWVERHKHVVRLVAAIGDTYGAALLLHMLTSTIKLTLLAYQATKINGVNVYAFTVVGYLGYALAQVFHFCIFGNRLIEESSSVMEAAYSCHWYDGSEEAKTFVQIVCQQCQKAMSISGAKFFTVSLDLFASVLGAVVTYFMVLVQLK
In short: (§1)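 HEK293 lines stably expressing each Drosophila OR with GCaMP6, doxycycline-induced (1 μg/mL) 48 or 72 h. Fluorescence recorded 5 s baseline then 30 s after VOC injection at pH 7.3; ΔF=(FMAX−F0)/F0, normalized to 50 µM VUAA1 response per line, triplicate wells averaged; concentration series 0.01–100 μM.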

[2] = molecular target: T2, Drosophila OR47a (Drosophila melanogaster, UniProt P81921); assay: Calcium ion fluorescence (GCaMP6) assay, OR47a stable HEK293 cell line; type: cell-based; conditions: for activation at 1 µM / activation at 10 µM / activation at 100 µM: HEK293, read-out: OR47a response (VUAA1-normalized response); for Average response: mean of biological replicates
T2 construct: expressed in transfected cells
T2 sequence (P81921 1-385): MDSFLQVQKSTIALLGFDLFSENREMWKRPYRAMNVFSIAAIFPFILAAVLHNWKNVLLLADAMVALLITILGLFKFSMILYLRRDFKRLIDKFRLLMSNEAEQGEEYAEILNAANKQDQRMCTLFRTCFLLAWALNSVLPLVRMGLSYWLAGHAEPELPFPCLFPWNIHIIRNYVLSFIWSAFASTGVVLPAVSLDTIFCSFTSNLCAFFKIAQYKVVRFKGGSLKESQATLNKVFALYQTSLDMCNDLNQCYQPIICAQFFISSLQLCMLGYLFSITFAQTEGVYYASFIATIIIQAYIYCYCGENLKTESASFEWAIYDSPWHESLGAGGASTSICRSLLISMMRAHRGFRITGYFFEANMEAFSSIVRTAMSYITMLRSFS
T2 sequence (Q9VNB5 1-486 partner): T1 sequence (Q9VNB5 1-486 partner)
In short: as §1

[3] = HEK293, read-out: OR13a Average response (VUAA1-normalized), 1 μM VOC, 50 μM VUAA1 = 1, responses not exceeding 0.05 considered 0
[4] = HEK293, read-out: OR13a Average response (VUAA1-normalized), 10 μM VOC, 50 μM VUAA1 = 1, responses not exceeding 0.05 considered 0
[5] = HEK293, read-out: OR13a Average response (VUAA1-normalized), 100 μM VOC, 50 μM VUAA1 = 1, responses not exceeding 0.05 considered 0
[6] = HEK293, read-out: OR13a response (VUAA1-normalized response), VOC concentration 1 μM
[7] = HEK293, read-out: OR13a response (VUAA1-normalized response), VOC concentration 10 μM
[8] = HEK293, read-out: OR13a response (VUAA1-normalized response), VOC concentration 100 μM
[9] = concentration 1, normalized fluorescence change, values below 0.05 threshold given as 0
[10] = concentration 10, normalized fluorescence change, values below 0.05 threshold given as 0
[11] = concentration 100, normalized fluorescence change, values below 0.05 threshold given as 0
[12] = OR47a cell line, odorant cc. 1 µM
[13] = OR47a cell line, odorant cc. 10 µM
[14] = OR47a cell line, odorant cc. 100 µM
[15] = ligand concentration 1 (unit not given), threshold 0.05, below shown as 0
[16] = ligand concentration 10 (unit not given), threshold 0.05, below shown as 0
[17] = ligand concentration 100 (unit not given), threshold 0.05, below shown as 0

Row | SMILES | activation at 1 µM [1, 3] | activation at 10 µM [1, 4] | activation at 100 µM [1, 5] | activation at 1 µM [1, 6] | activation at 10 µM [1, 7] | activation at 100 µM [1, 8] | DF norm AVERAGE OR13a [1, 9] | DF norm AVERAGE OR13a [1, 10] | DF norm AVERAGE OR13a [1, 11] | activation at 1 µM [2] | activation at 10 µM [2] | activation at 100 µM [2] | Average response [2, 12] | Average response [2, 13] | Average response [2, 14] | DF norm AVERAGE OR47a [2, 9] | DF norm AVERAGE OR47a [2, 10] | DF norm AVERAGE OR47a [2, 11] | DF norm AVERAGE OR13a [1, 15] | DF norm AVERAGE OR13a [1, 16] | other results
1 | CCCCCC(O)CC (stereo not drawn) [3-octanol] | 0% | 0% | 12% | 0% | 0% | 12% | 0 | 0 | 0.1167 | 0% | 0% | 9% | 0.00 | 0.00 | 0.09 | 0 | 0 | 0.08889 | – | – | –
2 | CC1=CCC[C@@]2(C)[C@@H]3CC[C@]12CC3(C)C [(−)-α-neoclovene] | – | – | – | – | – | – | 0 | 0 | 0 | – | – | – | 0.00 | 0.00 | 0.018 | 0 | 0 | 0 | – | – | OR13a Average response (VUAA1-normalized) ([1]; 1 μM VOC, 50 μM VUAA1 = 1, responses not exceeding 0.05 considered 0): 0.0436; OR13a Average response (VUAA1-normalized) ([1]; 10 μM VOC, 50 μM VUAA1 = 1, responses not exceeding 0.05 considered 0): 0.00; OR13a Average response (VUAA1-normalized) ([1]; 100 μM VOC, 50 μM VUAA1 = 1, responses not exceeding 0.05 considered 0): 0.00; OR13a response (VUAA1-normalized response) ([1]; VOC concentration 1 μM): 0.00; OR13a response (VUAA1-normalized response) ([1]; VOC concentration 10 μM): 0.00; OR13a response (VUAA1-normalized response) ([1]; VOC concentration 100 μM): 0.00; OR47a response (VUAA1-normalized response) ([2]; VOC concentration 1 μM): 0.00; OR47a response (VUAA1-normalized response) ([2]; VOC concentration 10 μM): 0.00; OR47a response (VUAA1-normalized response) ([2]; VOC concentration 100 μM): 0.00
3 | C=C1CC[C@H]2O[C@]2(C)CC[C@@H]2[C@@H]1CC2(C)C [(-)-caryophyllene oxide] | 0% | 0% | 0% | 0% | 0% | 0% | 0 | 0 | 0 | 0% | 0% | 0% | 0.00 | 0.00 | 0.00 | 0 | 0 | 0 | – | – | –
4 | CCOC(=O)CC [ethyl propionate] | 0% | 0% | 0% | 0% | 0% | 0% | – | – | – | 0% | 0% | 0% | 0.00 | 0.0134 | 0.0175 | – | – | – | 0 | 0 | DF norm AVERAGE OR13a [1, 17]: 0; DF norm AVERAGE OR47a [2, 15]: 0; DF norm AVERAGE OR47a [2, 16]: 0; DF norm AVERAGE OR47a [2, 17]: 0
5 | Cc1ccccc1C [o-xylene] | 0% | 0% | 1.83% | – | – | – | – | – | – | – | – | – | 0.00 | 0.00 | 0.00 | – | – | – | 0 | 0 | OR13a response (VUAA1-normalized) at 1 μM ([1]; OR13a cell line, VOC concentration 1 μM): 0.00; OR13a response (VUAA1-normalized) at 10 μM ([1]; OR13a cell line, VOC concentration 10 μM): 0.00; OR13a response (VUAA1-normalized) at 100 μM ([1]; OR13a cell line, VOC concentration 100 μM): 0.00; DF norm AVERAGE OR13a [1, 17]: 0; OR47a response (VUAA1-normalized) at 1 μM ([2]; OR47a cell line, VOC concentration 1 μM): 0.00; OR47a response (VUAA1-normalized) at 10 μM ([2]; OR47a cell line, VOC concentration 10 μM): 0.00; OR47a response (VUAA1-normalized) at 100 μM ([2]; OR47a cell line, VOC concentration 100 μM): 0.00; DF norm AVERAGE OR47a [2, 15]: 0; DF norm AVERAGE OR47a [2, 16]: 0; DF norm AVERAGE OR47a [2, 17]: 0
